Columns and labels:
[1] = biological target: 5-hydroxytryptamine receptor 2A (Homo sapiens, UniProt P28223)
Description: Displacement of (+/-)-[125I]DOI from human cloned 5HT2A receptor

[2] = biological target: T1, 5-hydroxytryptamine receptor 2A (Rattus norvegicus, UniProt P14842)
Description: Displacement of (+/-)-[125I]DOI from rat cloned 5HT2A receptor

[3] = biological target: T1, 5-hydroxytryptamine receptor 2A; test: Activity at rat 5HT2A receptor expressed in NIH3T3 cells assessed as stimulation of phospholipase C-mediated IP production; type: functional, cell-based

T1 sequence (P14842 whole entry): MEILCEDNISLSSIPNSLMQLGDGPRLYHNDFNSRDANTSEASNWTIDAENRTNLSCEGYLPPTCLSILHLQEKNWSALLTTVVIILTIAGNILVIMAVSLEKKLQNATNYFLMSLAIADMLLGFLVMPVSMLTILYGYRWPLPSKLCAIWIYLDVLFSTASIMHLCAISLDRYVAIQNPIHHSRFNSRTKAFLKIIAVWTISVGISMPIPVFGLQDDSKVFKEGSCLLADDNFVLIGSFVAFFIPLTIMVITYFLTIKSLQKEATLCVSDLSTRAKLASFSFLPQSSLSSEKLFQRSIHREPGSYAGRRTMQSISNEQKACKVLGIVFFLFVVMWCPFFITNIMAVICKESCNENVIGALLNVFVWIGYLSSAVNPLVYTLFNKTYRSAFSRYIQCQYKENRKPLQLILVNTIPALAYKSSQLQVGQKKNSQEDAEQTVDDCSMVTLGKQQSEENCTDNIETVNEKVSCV
Sequence of 5-hydroxytryptamine receptor 2A (Homo sapiens, UniProt P28223) (P28223 whole entry): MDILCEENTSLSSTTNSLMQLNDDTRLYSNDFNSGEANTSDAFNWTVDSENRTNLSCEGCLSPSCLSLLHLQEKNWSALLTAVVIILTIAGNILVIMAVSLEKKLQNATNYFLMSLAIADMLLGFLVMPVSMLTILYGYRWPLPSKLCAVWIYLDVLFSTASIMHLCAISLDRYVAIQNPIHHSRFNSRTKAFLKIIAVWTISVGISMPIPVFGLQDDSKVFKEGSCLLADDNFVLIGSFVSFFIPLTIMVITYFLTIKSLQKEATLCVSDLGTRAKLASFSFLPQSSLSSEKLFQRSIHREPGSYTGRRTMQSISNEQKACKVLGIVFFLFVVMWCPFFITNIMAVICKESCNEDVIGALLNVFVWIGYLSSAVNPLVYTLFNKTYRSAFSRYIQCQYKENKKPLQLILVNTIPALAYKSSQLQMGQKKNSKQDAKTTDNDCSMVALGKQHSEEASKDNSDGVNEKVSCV

| SMILES | Ki [1] [nM] | Ki [2] [nM] | EC50 [3] [nM] |
| --- | --- | --- | --- |
| COc1cc(Br)c(OC)c2c1C(CN)CC2 (racemic) | 53 | 47 | – |
| COc1cc(CCN)c(OC)cc1Br | 0.66 | 0.88 | 27 |
| COc1cc(Br)c2c3c1[C@@H](CN)CCC[C@@H]3CO2 (racemic) | 170 | 74 | – |
| COc1cc(Br)c2c3c1[C@H](CN)CCC[C@@H]3CO2 (racemic) | 200 | 170 | – |
